The source of these data is patent publication EP4595983A1, “NANOPARTICLES FUNCTIONALISED WITH A STABILISING AGENT AND A TARGETING AGENT” (BXTA Nanotherapy Limited, priority 2024, dated 2025).

Data set [1] relates to DU145 parental cells. Kind of data set: Alamar blue viability assay. The data set is classed as cell-based. The note with it: pepducin exposure; comparative pepducin effect at both 300 nM and 600 nM. How it is done: (§1) Alamar blue viability assays assessed the impact of inhibiting CXCL8 pro-inflammatory signalling on the viability of various PCa cell lines (Figure 28). Three increasing concentrations of pepducin (150 nM, 300 nM and 600 nM) were assayed following a 6 h incubation. Following exposure to pepducin cells were washed in PBS and 10% Alamar blue solution added for 4 h. Fluorescence was then measured at 540 - 570 nm. […] (N = 4 +/- SEM).
(§2) Following exposure to pepducins, cells were washed in PBS and 10% Alamar blue solution added for 4 h. Fluorescence was then measured at 540 - 570 nm. […] (N=4 +/- SEM).
Background: The colour change of resazurin is a common sign of viable cells or microbes.

The test system of data set [2] is NT01. Kind of data set: Alamar blue viability assay. It is filed as cell-based. The note with it: pepducin exposure; comparative pepducin effect at both 300 nM and 600 nM. How it is done:
as §1, §2

Data set [3] deals with sh1102 cells. Kind of data set: Alamar blue viability assay. The data set is classed as cell-based. The note with it: pepducin exposure; comparative pepducin effect at both 300 nM and 600 nM. Here is the method: as §1, §2
Data set [4] deals with various PCa cell lines. Kind of data set: Alamar blue viability assay. The data set is classed as cell-based. The note with it: 150 nM, 300 nM and 600 nM, 6 h incubation. How it is done: as §1
Data set [5] deals with PC3 cells. Kind of data set: Alamar blue viability assay. It is filed as cell-based. The note with it: 6 h; for cell viability (significance): 150 nM, 300 nM and 600 nM; for reduction in viability: 300 nM. How it is done: as §1
Data set [6] is described as follows: Solubility (peptide characteristics). It is filed as physicochemical.

Peptide text beside a SMILES is read from it. * marks the point of attachment. Palmitoyl = CCCCCCCCCCCCCCCC(=O)*

Take “scrambled control: scrambled control (corresponding to SEQ ID 7) (Palmitoyl-TRFLAKMHQGHKRC-NH2; SMILES CCCCCCCCCCCCCCCC(=O)N[C@H](C(=O)N[C@@H](CCCNC(=N)N)C(=O)N[C@@H](Cc1ccccc1)C(=O)N[C@@H](CC(C)C)C(=O)N[C@@H](C)C(=O)N[C@@H](CCCCN)C(=O)N[C@@H](CCSC)C(=O)N[C@@H](Cc1c[nH]cn1)C(=O)N[C@@H](CCC(N)=O)C(=O)NCC(=O)N[C@@H](Cc1c[nH]cn1)C(=O)N[C@@H](CCCCN)C(=O)N[C@@H](CCCNC(=N)N)C(=O)N[C@@H](CS)C(N)=O)[C@@H](C)O)”: the “cell viability / toxicity” value in data set [1], in data set [2] and in data set [3] was “did not show any significant toxicity” in each case. In addition, the cell viability result in data set [4] is given as “did not significantly reduce cell viability”. For the same compound, the “cell viability (significance)” value in data set [5] was “no significant affects”.
As to `CCCCCCCCCCCCCCCC(=O)N[C@@H](CCCNC(=N)N)C(=O)N[C@H](C(=O)N[C@@H](CC(C)C)C(=O)N[C@@H](Cc1ccccc1)C(=O)N[C@@H](CCCCN)C(=O)N[C@@H](C)C(=O)N[C@@H](Cc1c[nH]cn1)C(=O)N[C@@H](CCSC)C(=O)NCC(=O)N[C@@H](CCC(N)=O)C(=O)N[C@@H](CCCCN)C(=O)N[C@@H](Cc1c[nH]cn1)C(=O)N[C@@H](CCCNC(=N)N)C(N)=O)[C@@H](C)O` [comparative pepducin] (Palmitoyl-RTLFKAHMGQKHR-NH2), the “cell viability / toxicity” value in data set [1], in data set [2] and in data set [3] was “significantly reduced cell viability” each time. In addition, the cell viability entry in data set [4] was “did not significantly reduce cell viability”. For the same compound, the reduction in viability in data set [5] is listed as 25%.
For the compound `CCCCCCCCCCCCCCCC(=O)N[C@@H](CCCNC(=N)N)C(=O)N[C@H](C(=O)N[C@@H](CC(C)C)C(=O)N[C@@H](Cc1ccccc1)C(=O)N[C@@H](CCCCN)C(=O)N[C@@H](C)C(=O)N[C@@H](Cc1c[nH]cn1)C(=O)N[C@@H](CCSC)C(=O)NCC(=O)N[C@@H](CCC(N)=O)C(=O)N[C@@H](CCCCN)C(=O)N[C@@H](Cc1c[nH]cn1)C(=O)N[C@@H](CCCNC(=N)N)C(=O)N[C@@H](CS)C(N)=O)[C@@H](C)O` [SEQ ID 3, Pal-RTLFKAHMGQKHRC-NH2] (Palmitoyl-RTLFKAHMGQKHRC-NH2), the “cell viability / toxicity” value in data set [1], in data set [2] and in data set [3] was “did not show any significant toxicity” in each case. Also, the cell viability entry in data set [4] was “did not significantly reduce cell viability”. The “cell viability (significance)” value in data set [5] was “no significant reduction in viability”. In data set [5], the reduction in viability came to 8%. In addition, in data set [6], the Solubility is 1:4 (Acetonitirile:H2O).
